Measurements from patent US10487068B2, “Pyridazine derivatives as RORc modulators” (Genentech, Inc., priority 2015, dated 2019).

Each compound was assayed against T1, RORc ligand binding domain (Homo sapiens, UniProt P51449) (assay: In Vitro RORc Ligand Binding Assay). Settings: RORc IC50, radioligand 25-[3H]hydroxycholesterol 6 nM; 0.6 ug/mL RORc receptor; 3 h at 25° C.
T1 sequence (P51449 269-508 limits assumed): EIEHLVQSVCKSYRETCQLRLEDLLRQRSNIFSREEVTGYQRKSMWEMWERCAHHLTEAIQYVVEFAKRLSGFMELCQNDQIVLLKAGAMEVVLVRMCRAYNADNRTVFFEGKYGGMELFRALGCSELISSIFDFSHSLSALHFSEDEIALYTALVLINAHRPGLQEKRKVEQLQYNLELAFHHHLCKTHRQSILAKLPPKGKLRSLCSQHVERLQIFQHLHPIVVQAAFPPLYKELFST

Question: With `CC(C)(O)c1coc(-c2cncc([C@]34CC[C@H](c5cc(-c6c(F)cccc6F)nnc53)C4(C)C)n2)n1` [Example 387, 2-(2-(6-((5S,8R)-3-(2,6-difluorophenyl)-9,9-dimethyl-5,6,7,8-tetrahydro-5,8-methanocinnolin-8-yl)pyrazin-2-yl)oxazol-4-yl)propan-2-ol] as the compound, how does the IC50 read?
Answer: 8 nM

Question: How did the IC50 turn out when `CC(C)(O)c1ncc(-c2nccc([C@@]34CC[C@@H](c5cc(-c6c(F)cccc6F)nnc53)C4(C)C)n2)cn1` [Example 388] was run?
Answer: 7.3 nM

Question: With `Cc1ncn(-c2cc([C@@]34CC[C@@H](c5cc(-c6c(F)cccc6F)nnc53)C4(C)C)cnn2)n1` [Example 389, (5R,8S)-3-(2,6-difluorophenyl)-9,9-dimethyl-8-(6-(3-methyl-1H-1,2,4-triazol-1-yl)pyridazin-4-yl)-5,6,7,8-tetrahydro-5,8-methanocinnoline] as the compound, how does the IC50 read?
Answer: 91.2 nM

Question: Which IC50 does the source give for `Cc1ncnn1-c1cc([C@@]23CC[C@@H](c4cc(-c5c(F)cccc5F)nnc42)C3(C)C)cnn1` [Example 390, (5R,8S)-3-(2,6-difluorophenyl)-9,9-dimethyl-8-(6-(5-methyl-1H-1,2,4-triazol-1-yl)pyridazin-4-yl)-5,6,7,8-tetrahydro-5,8-methanocinnoline] here?
Answer: 317 nM

Question: For `Cc1cc([C@@]23CC[C@@H](c4cc(-c5c(F)cccc5F)nnc42)C3(C)C)nc(N)n1` [Example 391], which IC50 is on record?
Answer: 44.6 nM

Question: Which IC50 does the source give for `CC(C)(O)c1ccc(-c2cncc([C@@]34CC[C@@H](c5cc(-c6c(F)cccc6F)nnc53)C4(C)C)n2)cn1` [Example 392, 2-(5-(6-((5R,8S)-3-(2,6-difluorophenyl)-9,9-dimethyl-5,6,7,8-tetrahydro-5,8-methanocinnolin-8-yl)pyrazin-2-yl)pyridin-2-yl)propan-2-ol] here?
Answer: 5.5 nM

Question: With `CC(C)(O)c1cc(-c2cncc([C@@]34CC[C@@H](c5cc(-c6c(F)cccc6F)nnc53)C4(C)C)n2)ccn1` [Example 393, 2-(4-(6-((5R,8S)-3-(2,6-difluorophenyl)-9,9-dimethyl-5,6,7,8-tetrahydro-5,8-methanocinnolin-8-yl)pyrazin-2-yl)pyridin-2-yl)propan-2-ol] as the compound, how does the IC50 read?
Answer: 5.6 nM

Question: Which IC50 does the source give for `CC(C)(O)c1ncc(-c2cncc([C@@]34CC[C@@H](c5cc(-c6c(F)cccc6F)nnc53)C4(C)C)n2)cn1` [Example 394, 2-(5-(6-((5R,8S)-3-(2,6-difluorophenyl)-9,9-dimethyl-5,6,7,8-tetrahydro-5,8-methanocinnolin-8-yl)pyrazin-2-yl)pyrimidin-2-yl)propan-2-ol] here?
Answer: 9.1 nM

Question: Which IC50 does the source give for `CC1(C)[C@H]2CC[C@]1(c1cncc(-c3ccc(=O)[nH]c3)n1)c1nnc(-c3c(F)cccc3F)cc12` [Example 395, 5-(6-((5R,8S)-3-(2,6-difluorophenyl)-9,9-dimethyl-5,6,7,8-tetrahydro-5,8-methanocinnolin-8-yl)pyrazin-2-yl)pyridin-2(1H)-one] here?
Answer: 4.3 nM

Question: With `CC(C)(O)c1coc(-c2cncc([C@@]34CC[C@@H](c5cc(-c6ccccc6F)nnc53)C4(C)C)n2)n1` [Example 396, 2-(2-(6-((5R,8S)-3-(2-fluorophenyl)-9,9-dimethyl-5,6,7,8-tetrahydro-5,8-methanocinnolin-8-yl)pyrazin-2-yl)oxazol-4-yl)propan-2-ol] as the compound, how does the IC50 read?
Answer: 4.8 nM

Question: With `Cc1oc(-c2cncc([C@@]34CC[C@@H](c5cc(-c6c(F)cccc6F)nnc53)C4(C)C)n2)nc1C(C)(C)O` [Example 397, 2-(2-(6-((5R,8S)-3-(2,6-difluorophenyl)-9,9-dimethyl-5,6,7,8-tetrahydro-5,8-methanocinnolin-8-yl)pyrazin-2-yl)-5-methyloxazol-4-yl)propan-2-ol] as the compound, how does the IC50 read?
Answer: 10.4 nM

Question: How did the IC50 turn out when `CC1(C)[C@H]2CC[C@]1(c1cncc(C3(O)COC3)n1)c1nnc(-c3c(F)cccc3F)cc12` [Example 398, 3-(6-((5R,8S)-3-(2,6-difluorophenyl)-9,9-dimethyl-5,6,7,8-tetrahydro-5,8-methanocinnolin-8-yl)pyrazin-2-yl)oxetan-3-ol] was run?
Answer: 12.5 nM

Question: Which IC50 does the source give for `CC1(C)[C@H]2CC[C@]1(c1cncc(-c3cn[nH]n3)n1)c1nnc(-c3c(F)cccc3F)cc12` [Example 399] here?
Answer: 6.4 nM

Question: For `CC(C)(O)c1cnc(-c2cncc([C@@]34CC[C@@H](c5cc(-c6c(F)cccc6F)nnc53)C4(C)C)n2)cn1` [Example 400, 2-(6′-((5R,8S)-3-(2,6-difluorophenyl)-9,9-dimethyl-5,6,7,8-tetrahydro-5,8-methanocinnolin-8-yl)-[2,2′-bipyrazin]-5-yl)propan-2-ol], which IC50 is on record?
Answer: 8.7 nM

Question: How did the IC50 turn out when `CC1(C)[C@H]2CC[C@]1(c1cncc(-c3cnc(=O)[nH]c3)n1)c1nnc(-c3c(F)cccc3F)cc12` [Example 401, 5-(6-((5R,8S)-3-(2,6-difluorophenyl)-9,9-dimethyl-5,6,7,8-tetrahydro-5,8-methanocinnolin-8-yl)pyrazin-2-yl)pyrimidin-2(1H)-one] was run?
Answer: 14.7 nM

Question: Which IC50 does the source give for `CC1(C)[C@H]2CC[C@]1(c1cncc(-c3ccc(OCC(N)=O)nc3)n1)c1nnc(-c3c(F)cccc3F)cc12` [Example 402, 2-((5-(6-((5R,8S)-3-(2,6-difluorophenyl)-9,9-dimethyl-5,6,7,8-tetrahydro-5,8-methanocinnolin-8-yl)pyrazin-2-yl)pyridin-2-yl)oxy)acetamide] here?
Answer: 8.1 nM

Question: How did the IC50 turn out when `CC1(C)[C@H]2CC[C@]1(c1ccnc(-c3ccc(N)nc3)n1)c1nnc(-c3c(F)cccc3F)cc12` [Example 403] was run?
Answer: 6.8 nM

Question: For `CC1(C)[C@H]2CC[C@]1(c1ccnc(-c3ccnc(C(N)=O)c3)n1)c1nnc(-c3c(F)cccc3F)cc12` [Example 404], which IC50 is on record?
Answer: 9.2 nM

Question: For `CC1(C)[C@H]2CC[C@]1(c1cncc(-c3cnn(CC(N)=O)c3)n1)c1nnc(-c3c(F)cccc3F)cc12` [Example 405, 2-(4-(6-((5R,8S)-3-(2,6-difluorophenyl)-9,9-dimethyl-5,6,7,8-tetrahydro-5,8-methanocinnolin-8-yl)pyrazin-2-yl)-1H-pyrazol-1-yl)acetamide], which IC50 is on record?
Answer: 7.7 nM

Question: With `CC(C)(O)Cn1cc(-c2cncc([C@@]34CC[C@@H](c5cc(-c6c(F)cccc6F)nnc53)C4(C)C)n2)cn1` [Example 406, 1-(4-(6-((5R,8S)-3-(2,6-difluorophenyl)-9,9-dimethyl-5,6,7,8-tetrahydro-5,8-methanocinnolin-8-yl)pyrazin-2-yl)-1H-pyrazol-1-yl)-2-methylpropan-2-ol] as the compound, how does the IC50 read?
Answer: 7.6 nM

Question: For `CC(C)(O)Cn1ccc(-c2cncc([C@@]34CC[C@@H](c5cc(-c6c(F)cccc6F)nnc53)C4(C)C)n2)n1` [Example 407, 1-(3-(6-((5R,8S)-3-(2,6-difluorophenyl)-9,9-dimethyl-5,6,7,8-tetrahydro-5,8-methanocinnolin-8-yl)pyrazin-2-yl)-1H-pyrazol-1-yl)-2-methylpropan-2-ol], which IC50 is on record?
Answer: 7.6 nM

Question: Which IC50 does the source give for `CC1(C)[C@H]2CC[C@]1(c1nccc(-n3ccnc3)n1)c1nnc(-c3c(F)cccc3F)cc12` [Example 408, (5R,8R)-8-(4-(1H-imidazol-1-yl)pyrimidin-2-yl)-3-(2,6-difluorophenyl)-9,9-dimethyl-5,6,7,8-tetrahydro-5,8-methanocinnoline] here?
Answer: 11 nM

Question: Which IC50 does the source give for `CC1(C)[C@H]2CC[C@]1(c1ccnc(-c3cnc(=O)[nH]c3)n1)c1nnc(-c3c(F)cccc3F)cc12` [Example 409] here?
Answer: 7.8 nM

Question: Which IC50 does the source give for `CC1(C)[C@H]2CC[C@]1(c1cncc(-c3ccnc(OCC(N)=O)c3)n1)c1nnc(-c3c(F)cccc3F)cc12` [Example 410, 2-((4-(6-((5R,8S)-3-(2,6-difluorophenyl)-9,9-dimethyl-5,6,7,8-tetrahydro-5,8-methanocinnolin-8-yl)pyrazin-2-yl)pyridin-2-yl)oxy)acetamide] here?
Answer: 6.3 nM

Question: How did the IC50 turn out when `CC1(C)[C@H]2CC[C@]1(c1cncc(-c3ccn(CC(N)=O)n3)n1)c1nnc(-c3c(F)cccc3F)cc12` [Example 411, 2-(3-(6-((5R,8S)-3-(2,6-difluorophenyl)-9,9-dimethyl-5,6,7,8-tetrahydro-5,8-methanocinnolin-8-yl)pyrazin-2-yl)-1H-pyrazol-1-yl)acetamide] was run?
Answer: 8.8 nM

Question: `CC1(C)[C@H]2CC[C@]1(c1ccnc(-c3ccnc(CO)c3)n1)c1nnc(-c3c(F)cccc3F)cc12` [Example 412] was tested. Which IC50 did it give?
Answer: 7.1 nM

Question: For `CC1(C)[C@H]2CC[C@]1(c1cncc(-c3ccc(CS(C)(=O)=O)nc3)n1)c1nnc(-c3c(F)cccc3F)cc12` [Example 413], which IC50 is on record?
Answer: 5 nM

Question: Which IC50 does the source give for `CC1(C)[C@H]2CC[C@]1(c1ccnc(-c3ccc(NS(C)(=O)=O)nc3)n1)c1nnc(-c3c(F)cccc3F)cc12` [Example 414, N-(5-(4-((5R,8S)-3-(2,6-difluorophenyl)-9,9-dimthyl-5,6,7,8-tetrahydro-5,8-methanocinnolin-8-yl)pyrimidin-2-yl)pyridin-2-yl)methanesulfonamide] here?
Answer: 9.8 nM

Question: For `CC(C)(O)c1cnc(-c2nccc([C@@]34CC[C@@H](c5cc(-c6c(F)cccc6F)nnc53)C4(C)C)n2)cn1` [Example 415], which IC50 is on record?
Answer: 22 nM

Question: `C[C@H](O)Cn1ccc(-c2cncc([C@@]34CC[C@@H](c5cc(-c6c(F)cccc6F)nnc53)C4(C)C)n2)n1` [Example 417, (S)-1-(3-(6-((5R,8S)-3-(2,6-difluorophenyl)-9,9-dimethyl-5,6,7,8-tetrahydro-5,8-methanocinnolin-8-yl)pyrazin-2-yl)-1H-pyrazol-1-yl)propan-2-ol] was tested. Which IC50 did it give?
Answer: 5.6 nM

Question: Which IC50 does the source give for `C[C@@H](O)C(=O)Nc1ccc(-c2nccc([C@@]34CC[C@@H](c5cc(-c6c(F)cccc6F)nnc53)C4(C)C)n2)cn1` [Example 418] here?
Answer: 10.5 nM

Question: `CC1(C)[C@H]2CC[C@]1(c1cncc(-c3ccc(N)nc3)n1)c1nnc(-c3c(F)cccc3F)cc12` [Example 419, 5-(6-((5R,8S)-3-(2,6-difluorophenyl)-9,9-dimethyl-5,6,7,8-tetrahydro-5,8-methanocinnolin-8-yl)pyrazin-2-yl)pyridin-2-amine] was tested. Which IC50 did it give?
Answer: 10.1 nM

Question: For `CC1(C)[C@H]2CC[C@]1(c1cncc(-c3ccc(OCCO)nc3)n1)c1nnc(-c3c(F)cccc3F)cc12` [Example 420, 2-((5-(6-((5R,8S)-3-(2,6-difluorophenyl)-9,9-dimethyl-5,6,7,8-tetrahydro-5,8-methanocinnolin-8-yl)pyrazin-2-yl)pyridin-2-yl)oxy)ethanol], which IC50 is on record?
Answer: 9.2 nM
